Bridge positions count the residues as written; N and C are the ends. Square brackets hold non-standard residues; d marks the D form. Peptide text beside a SMILES is read from it. R8 = C=CCCCCCC[C@@](C)(N)C(=O)O; Chg = N[C@H](C(=O)O)C1CCCCC1; hLeu = CC(C)CC[C@H](N)C(=O)O; S5 = C=CCCC[C@](C)(N)C(=O)O; Nle = CCCC[C@H](N)C(=O)O; Ac3c = NC1(C(=O)O)CC1; Aib = CC(C)(N)C(=O)O
Tested on: SJSA-1 cells
Experiment: Cell lysis by peptidomimetic macrocycles (LDH release)
Assay type: cell-based
Details: SJSA-1, 1 h
Procedure: SJSA-1 cells were plated out one day in advance in clear flat-bottom plates (Costar, catalog number 353072) at 7500 cells/well with 100 ul/well of growth media, leaving row H columns 10-12 empty for media alone. On the day of the assay, media was exchanged with RPMI 1% FBS media, 90 uL of media per well.
10 mM stock solutions of the peptidomimetic macrocycles were prepared in 100% DMSO. Peptidomimetic macrocycles were then diluted serially in 100% DMSO, and then further diluted 20-fold in sterile water to prepare working stock solutions in 5% DMSO/water of each peptidomimetic macrocycle at concentrations ranging from 500 μM to 62.5 μM.
10 μL of each compound was added to the 90 uL of SJSA-1 cells to yield final concentrations of 50 μM to 6.25 μM in 0.5% DMSO-containing media. The negative control (non-lytic) sample was 0.5% DMSO alone and positive control (lytic) samples include 10 μM Melittin and 1% Triton X-100.
Cell plates were incubated for 1 hour at 37° C. After the 1 hour incubation, the morphology of the cells is examined by microscope and then the plates were centrifuged at 1200 rpm for 5 minutes at room temperature. 40 μL of supernatant for each peptidomimetic macrocycle and control sample is transferred to clear assay plates. LDH release is measured using the LDH cytotoxicity assay kit from Caymen, catalog #1000882.

| SMILES | 6.25 μM % Lysed cells (1 h LDH) | 25 μM % Lysed cells (1 h LDH) | 50 μM % Lysed cells (1 h LDH) |
| --- | --- | --- | --- |
| CC(=O)N[C@@H](CC(C)C)C(=O)N[C@H](C(=O)N[C@@H](Cc1ccccc1)C(=O)N[C@]1(C)CCCCCCC=CCCC[C@@](C)(C(=O)N[C@@H](CO)C(=O)N[C@@H](C)C(=O)N[C@H](C(N)=O)C2CCCCC2)NC(=O)[C@H](CC(C)C)NC(=O)[C@H](CCC(N)=O)NC(=O)[C@H](C)NC(=O)[C@H](Cc2c[nH]c3ccccc23)NC(=O)[C@H](Cc2ccc(O)cc2)NC(=O)[C@H](C)NC1=O)[C@@H](C)O [compound 9] (Ac-LTF[R8]AYWAQL[S5]SA[Chg]-NH2; staple 4-11) | −3% | 0% | 2% |
| CC[C@H](C)[C@H](NC(=O)[C@H](C)NC(=O)[C@H](C)NC(=O)[C@]1(C)CCCC=CCCCCCC[C@@](C)(NC(=O)[C@H](Cc2ccccc2)NC(=O)[C@@H](NC(=O)[C@H](CC(C)C)NC(C)=O)[C@@H](C)O)C(=O)N[C@@H](CCC(=O)O)C(=O)N[C@@H](Cc2ccc(C(=O)O)cc2)C(=O)N[C@@H](Cc2c[nH]c3cc(Cl)ccc23)C(=O)N[C@@H](C)C(=O)N[C@@H](CCC(N)=O)C(=O)N[C@@H](CC2CCC2)C(=O)N1)C(=O)N[C@H](C)C(N)=O (single isomer, unassigned) [compound 336] | 0% | 0% | 0% |
| CCCCCC(=O)N[C@@H](CC(C)C)C(=O)N[C@H](C(=O)N[C@@H](Cc1ccccc1)C(=O)N[C@]1(C)CCCCCCC=CCCC[C@@](C)(C(=O)N[C@@H](CO)C(=O)N[C@@H](C)C(=O)N[C@@H](C)C(N)=O)NC(=O)[C@H](CCC(C)C)NC(=O)[C@H](CCC(N)=O)NC(=O)[C@H](C)NC(=O)[C@H](Cc2c[nH]c3ccccc23)NC(=O)[C@H](Cc2ccc(O)cc2)NC(=O)[C@H](CCC(=O)O)NC1=O)[C@@H](C)O [compound 280] | 5% | 6% | 18% |
| CC(=O)N[C@@H](CC(C)C)C(=O)N[C@H](C(=O)N[C@@H](Cc1ccccc1)C(=O)N[C@]1(C)CCCCCCC=CCCC[C@@](C)(C(=O)N[C@@H](CO)C(=O)N[C@@H](C)C(=O)N[C@@H](CCC(C)C)C(N)=O)NC(=O)[C@H](CC(C)C)NC(=O)[C@H](CCC(N)=O)NC(=O)[C@H](C)NC(=O)[C@H](Cc2c[nH]c3ccccc23)NC(=O)[C@H](Cc2ccc(O)cc2)NC(=O)[C@H](C)NC1=O)[C@@H](C)O [compound 6] (Ac-LTF[R8]AYWAQL[S5]SA[hLeu]-NH2; staple 4-11) | 1% | 1% | 1% |
| CCCC[C@H](NC(=O)[C@H](C)NC(=O)[C@H](CO)NC(=O)[C@]1(C)CCCC=CCCCCCC[C@@](C)(NC(=O)[C@H](Cc2ccccc2)NC(=O)[C@@H](NC(=O)[C@H](CC(C)C)NC(C)=O)[C@@H](C)O)C(=O)N[C@@H](C)C(=O)N[C@@H](Cc2ccc(O)cc2)C(=O)N[C@@H](Cc2c[nH]c3ccccc23)C(=O)N[C@@H](C)C(=O)N[C@@H](CCC(N)=O)C(=O)N[C@@H](CC(C)C)C(=O)N1)C(N)=O [compound 3] (Ac-LTF[R8]AYWAQL[S5]SA[Nle]-NH2; staple 4-11) | 1% | 1% | 3% |
| CCCC[C@H](NC(=O)[C@H](C)NC(=O)[C@H](CCC(N)=O)NC(=O)[C@H](Cc1c[nH]cn1)NC(=O)[C@]1(C)CCCC=CCCCCCC[C@@](C)(NC(=O)[C@H](Cc2ccccc2)NC(C)=O)C(=O)N[C@@H](C)C(=O)N[C@@H](Cc2ccc(O)cc2)C(=O)N[C@@H](Cc2c[nH]c3ccccc23)C(=O)N[C@@H](CO)C(=O)N[C@@H](C)C(=O)N[C@@H](CC(C)C)C(=O)N1)C(N)=O [compound 39] (Ac-F[R8]AYWSAL[S5]HQA[Nle]-NH2; staple 2-9) | 0% | 0% | 3% |
| CC(=O)N[C@@H](CCC(=O)O)C(=O)N[C@H](C(=O)N[C@@H](Cc1ccccc1)C(=O)N[C@]1(C)CCCCCCC=CCCC[C@@](C)(C(=O)N[C@@H](C)C(=O)N[C@@H](C)C(=O)N[C@@H](C)C(=O)N[C@@H](C)C(=O)N[C@@H](C)C(=O)N[C@H](C)C(N)=O)NC(=O)[C@H](CC(C)C)NC(=O)[C@H](CCC(N)=O)NC(=O)[C@H](C)NC(=O)[C@H](Cc2c[nH]c3ccccc23)NC(=O)[C@H](Cc2ccc(O)cc2)NC(=O)[C@H](CCC(=O)O)NC1=O)[C@@H](C)O (single isomer, unassigned) [compound 340] | 0% | 0% | 0% |
| CC(C)CC[C@@H]1NC(=O)[C@H](CCC(N)=O)NC(=O)[C@H](C)NC(=O)[C@H](Cc2c[nH]c3ccccc23)NC(=O)[C@H](Cc2ccc(O)cc2)NC(=O)[C@H](CCC(=O)O)NC(=O)[C@](C)(NC(=O)[C@H](Cc2ccccc2)NC(=O)[C@@H](NC(=O)[C@H](CC(C)C)NC(=O)C(C)(C)C)[C@@H](C)O)CCCCCCC=CCCC[C@@](C)(C(=O)N[C@@H](CO)C(=O)N[C@@H](C)C(=O)N[C@@H](C)C(N)=O)NC1=O [compound 284] | 5% | 5% | 6% |
| CCCC[C@H](NC(=O)[C@H](C)NC(=O)[C@H](C)NC(=O)[C@]1(C)CCCC=CCCCCCC[C@@](C)(NC(=O)[C@H](Cc2ccccc2)NC(=O)[C@@H](NC(=O)[C@H](CC(C)C)NC(C)=O)[C@@H](C)O)C(=O)N[C@@H](C)C(=O)N[C@@H](Cc2ccc(O)cc2)C(=O)N[C@@H](Cc2c[nH]c3ccccc23)C(=O)N[C@@H](Cc2cc(=O)oc3cc(OC)c(OC)cc23)C(=O)N[C@@H](CCC(N)=O)C(=O)N[C@@H](CC(C)C)C(=O)N1)C(=O)N[C@@H](C)C(N)=O [compound 415] | 4% | 2% | 2% |
| CC(=O)N[C@@H](Cc1ccccc1)C(=O)N[C@]1(C)CCCCCCC=CCCC[C@@](C)(C(=O)N[C@@H](C)C(=O)N[C@@H](C)C(=O)NC(C)(C)C(N)=O)NC(=O)[C@H](CC(C)C)NC(=O)C2(CC2)NC(=O)[C@H](CCC(=O)O)NC(=O)[C@H](Cc2c[nH]c3ccccc23)NC(=O)[C@H](Cc2ccc(O)cc2)NC(=O)[C@H](C)NC1=O [compound 22] (Ac-F[R8]AYWE[Ac3c]L[S5]AA[Aib]-NH2; staple 2-9) | 0% | 0% | 0% |
| CC(=O)N[C@@H](CC(C)C)C(=O)N[C@H](C(=O)N[C@@H](Cc1ccccc1)C(=O)N[C@]1(C)CCCCCCC=CCCC[C@@](C)(C(=O)N[C@@H](C)C(=O)N[C@H](C(=O)NCC(N)=O)C(C)C)NC(=O)[C@H](CC(C)C)NC(=O)[C@H](CCC(N)=O)NC(=O)[C@H](C)NC(=O)[C@H](Cc2c[nH]c3ccccc23)NC(=O)[C@H](Cc2ccc(O)cc2)NC(=O)[C@H](C)NC1=O)[C@@H](C)O (single isomer, unassigned) [compound 108] | 0% | 0% | 1% |

From patent US20200369728A1, “PEPTIDOMIMETIC MACROCYCLES AND USES THEREOF” (Aileron Therapeutics, Inc., priority 2015, published 2020)
